Measurements published in article PMC4649711, “In1-ghrelin splicing variant is overexpressed in pituitary adenomas and increases their aggressive features” (Scientific Reports, 2015).
“Also recorded” adds a separate entry of the source. Blank lines part the entries; values can stand above or below the molecule they belong to. Residues, ends and D or L forms follow the SMILES beside them. *: point of attachment. Octanoyl = CCCCCCCC(=O)*

Assays:
NFPAs = test: cell viability of NFPAs after In1-ghrelin silencing; type: cell-based, human; conditions: siRNA 100 nM vs scramble, 24 and 48 h, alamar-blue, n = 2
Description: (§1) To perform overexpression experiments, ghrelin sequence was purchased, cloned in pCMV-Sport6-vector (Harvard Cancer Center, Boston, MA, USA) and was subcloned into the expression vector pCDNA3.1+ (Life Technologies, Grand Island, NY, USA). In1-ghrelin sequence was PCR-amplified (In1-Hind-Up: 5′-[…]-3′ and In1-Bam-Low: 5′-[…]-3′) and cloned into pCDNA3.1+. Empty pCDNA3.1+ (mock) was used in all the experiments as negative control. For silencing experiments, a battery of custom-designed siRNAs specifically targeted against the unique In1-ghrelin mRNA sequence was chemically synthesized by Life Technologies and their efficiency, specificity and appropriate concentration tested in human cell lines expressing In1-ghrelin (MDA-MB-231 breast cancer cell line and LnCAP prostate cancer cell line) (data not shown). […]
(§2) As previously reported, cell viability was estimated using alamar-blue reagent (10,000 cells/well-plate; Biosource International, Camarillo, CA, USA)[30][50][52]. […] Reduction of alamar-blue reagent was quantified exciting at 560 nm and reading at 590 nm using the FlexStation III system (Molecular Devices, Sunnyvale, CA, USA). […]

GH-omas = test: cell viability of GH-omas after In1-ghrelin silencing; type: cell-based, human; conditions: siRNA 100 nM vs scramble, 24 and 48 h, alamar-blue, n = 2
Description: as §1, §2

In1-ghrelin mRNA = test: silencing of In1-ghrelin mRNA expression; type: cell-based, human; conditions: qPCR; for silencing of In1-ghrelin expression: human cell lines MDA-MB-231 and LnCAP (data not shown) or representative pituitary tumor validation (Figure 6G)
Description: To perform overexpression experiments, ghrelin sequence was purchased, cloned in pCMV-Sport6-vector (Harvard Cancer Center, Boston, MA, USA) and was subcloned into the expression vector pCDNA3.1+ (Life Technologies, Grand Island, NY, USA). In1-ghrelin sequence was PCR-amplified (In1-Hind-Up: 5′-[…]-3′ and In1-Bam-Low: 5′-[…]-3′) and cloned into pCDNA3.1+. Empty pCDNA3.1+ (mock) was used in all the experiments as negative control. For silencing experiments, a battery of custom-designed siRNAs specifically targeted against the unique In1-ghrelin mRNA sequence was chemically synthesized by Life Technologies and their efficiency, specificity and appropriate concentration tested in human cell lines expressing In1-ghrelin (MDA-MB-231 breast cancer cell line and LnCAP prostate cancer cell line) (data not shown). […] As a negative control, a commercial, validated negative control (scramble) was used in all the experiments, which according to the manufacturer's instructions, has no significant sequence similarity to murine or human gene sequences (Silencer Select Negative Control No. 1 siRNA, Life Technologies, […], NY, USA).
For transfection assays (overexpression or silencing), 200,000–500,000 cells were seeded on 6-well plates in serum containing medium during 24–36 h. Then, medium was replaced with antibiotic-antimycotic free medium. For overexpression experiments, 100 ng/50,000 cell of ghrelin or In1-ghrelin plasmid was diluted in 50 μL of Opti-MEM and, 0.5 μL of Lipofectamine 2000 (Life Technologies) were separately diluted in another 50 μL of Opti-MEM. Both solutions were incubated for 5 minutes at room temperature and then, were mixed and incubated for 30 minutes at room temperature. After this incubation period, the solution (total of 100 μL) was added to the cells/per well. For silencing experiments, 7.5 μL of Lipofectamine RNAiMAX (Life Technologies) was diluted in 100 μL of Opti-MEM and, 100 nM of In1-ghrelin siRNA was separately diluted in another 100 μL of Opti-MEM. […]

AtT-20 cell line [1] = test: ACTH secretion from AtT-20 cell line; type: cell-based, mouse; conditions: 4 h, 3–5 independent experiments
Protocol: (§3) The mouse corticotroph pituitary derived cell line AtT-20/D16v-F2 (ATCC® CRL-1795) was cultured and maintained in Dulbecco's Modified Eagle's Medium (DMEM) complemented with 10% FBS, 100 U/ml penicillin/streptomycin, 0.024 M of 2-(4(2-hydroxyethyl)-1-piperazine)-ethane sulfonic acid (HEPES), and maintained at 37°C and 5% CO2, under sterile conditions. CHO-K1 cell line(ATCC® CCL-61) expressing recombinant human GHSR1a (GenBank accession number U60179) or GHSR1b (GenBank accession number U60181) were cultured and maintained in Ham's F12 media (Corning #10-080-CV) supplemented with 10% FBS, 2 mM L-Glutamine and 0.4 mg/mL Geneticin.
To examine the effects of ghrelin system components (4- and/or 24 h-incubation) on pituitary hormone release from primary pituitary adenoma and/or AtT-20 cell line, 100,000–200,000 cell/well were used. As previously reported, hormone concentrations were measured in the culture media derived from human samples according to the pituitary adenoma type using commercial ELISAs [growth hormone, GH; adrenocorticotropin, ACTH; and prolactin, PRL (reference numbers: EIA-3552, EIA-3647 and EIA-1291, respectively; DRG, Mountainside, NJ, USA)] following the manufacturer's instructions. All the information regarding specificity, detectability, and reproducibility for each of the assays can be accessed at the web site of the company.

AtT-20 cell line [2] = test: cell viability of AtT-20 cell line; type: cell-based, mouse; conditions: alamar-blue, 3–5 independent experiments, IGF-1 and Paclitaxel as controls
Protocol: as §3
As previously reported, cell viability was estimated using alamar-blue reagent (10,000 cells/well-plate; Biosource International, Camarillo, CA, USA)[30][50][52]. Briefly, cells were serum-starved for 12–16 h before the measurements and treated with serum-free medium containing 10% alamar-blue for 3 h. Reduction of alamar-blue reagent was quantified exciting at 560 nm and reading at 590 nm using the FlexStation III system (Molecular Devices, Sunnyvale, CA, USA). Subsequently, media was replaced by serum-containing alamar-blue free medium and incubated for additional 24–72 h, measuring the alamar-blue reduction every 24 h. […]

recombinant human GHSR1b = biological target: T1, recombinant human GHSR1b (Homo sapiens, UniProt Q92847); test: calcium signaling activation in GHSR1b-transfected CHO-K1 cells; type: cell-based; conditions: Calcium 4 kit, FLIPR Tetra, 37°C dye loading 1 h, dose-response, GraphPad Prism, read-out: Half-maximal Calcium signaling activation (EC50)
T1 construct: expressed in transfected cells; host or cells: CHO-K1 (ATCC CCL-61), stably transfected
T1 sequence (Q92847 1-289 isoform Q92847-2): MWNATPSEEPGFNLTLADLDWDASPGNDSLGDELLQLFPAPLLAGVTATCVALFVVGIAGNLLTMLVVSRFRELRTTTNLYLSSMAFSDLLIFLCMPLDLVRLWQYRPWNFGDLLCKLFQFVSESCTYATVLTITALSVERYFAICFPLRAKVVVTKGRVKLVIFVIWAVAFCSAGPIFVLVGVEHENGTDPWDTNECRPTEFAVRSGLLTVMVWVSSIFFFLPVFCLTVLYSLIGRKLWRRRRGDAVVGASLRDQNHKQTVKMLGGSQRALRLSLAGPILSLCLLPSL
Protocol: Changes in [Ca^2+]i in CHO-K1 cell line expressing recombinant GHSR1a or GHSR1b receptor were measured using Calcium 4 Explorer Kit (Molecular Devices, Sunnyvale, CA, USA). Briefly, cells were incubated at 37°C, 5% CO2 overnight in growth media. After 24 hours, growth media was replaced with Calcium 4 indicating dye in HBSS buffer containing 20 mM HEPES and 0.1% BSA and incubated for 1 hour at 37°C. Fluorescent signals were then monitored using the FLIPR Tetra (Molecular Devices, Sunnyvale, CA, USA) during which cells were stimulated with compounds. Dose-response curves were analyzed using GraphPad Prism v5.04 (La Jolla, CA, USA).

Molecule: 5′-GAGTCCTAAACAGACTGTT-3′ (siRNA; other strand not given here) [In1-ghrelin siRNA]
- cell viability after In1-ghrelin silencing (NFPAs): reduced cell viability
- cell viability after In1-ghrelin silencing (GH-omas): reduced cell viability
- silencing of In1-ghrelin expression (In1-ghrelin mRNA): more robust silencing efficiency of In1-ghrelin, but not native ghrelin
- silencing of In1-ghrelin expression (In1-ghrelin mRNA; listed as specific siRNAs): decrease of In1-ghrelin mRNA expression
- ghrelin mRNA expression after In1-ghrelin silencing (In1-ghrelin mRNA; selectivity vs native ghrelin): no significant decrease of ghrelin mRNA expression

Molecule: GSSFLSPEHQKAQVSQSVSLSPHIYPDLCVCV [In2-ghrelin, 32-aa mouse In2-ghrelin derived peptide, murine counterpart of In1-ghrelin]
- basal ACTH release (AtT-20 cell line [1]): significantly increased basal ACTH release
- cell viability (AtT-20 cell line [2]): stimulated cell viability; also recorded: increased cell viability

- EC50 (recombinant human GHSR1b): > 3 µM
Molecule: CCCCCCCC(=O)OC[C@H](NC(=O)[C@H](CO)NC(=O)CN)C(=O)N[C@@H](Cc1ccccc1)C(=O)N[C@@H](CC(C)C)C(=O)N[C@@H](CO)C(=O)N1CCC[C@H]1C(=O)N[C@@H](CCC(=O)O)C(=O)N[C@@H](Cc1c[nH]cn1)C(=O)N[C@@H](CCC(N)=O)C(=O)N[C@@H](CCCNC(=N)N)C(=O)N[C@H](C(=O)N[C@@H](CCC(N)=O)C(=O)N[C@H](C(=O)N[C@@H](CCCNC(=N)N)C(=O)N1CCC[C@H]1C(=O)N1CCC[C@H]1C(=O)N[C@@H](Cc1c[nH]cn1)C(=O)N[C@@H](CCCCN)C(=O)N[C@@H](C)C(=O)N1CCC[C@H]1C(=O)N[C@@H](Cc1c[nH]cn1)C(=O)N[C@H](C(=O)N[C@H](C(=O)N1CCC[C@H]1C(=O)N[C@@H](C)C(=O)N[C@@H](CC(C)C)C(=O)N1CCC[C@H]1C(=O)N[C@@H](CC(C)C)C(=O)N[C@@H](CO)C(=O)N[C@@H](CC(N)=O)C(=O)N[C@@H](CCC(N)=O)C(=O)N[C@@H](CC(C)C)C(=O)N[C@@H](CS)C(=O)N[C@@H](CC(=O)O)C(=O)N[C@@H](CC(C)C)C(=O)N[C@@H](CCC(=O)O)C(=O)N[C@@H](CCC(N)=O)C(=O)N[C@@H](CCC(N)=O)C(=O)N[C@@H](CCCNC(=N)N)C(=O)O)C(C)C)C(C)C)C(C)C)C(C)C [In1-40] (H-GSS(Octanoyl)FLSPEHQRVQVRPPHKAPHVVPALPLSNQLCDLEQQR-OH)

- EC50 (recombinant human GHSR1b): > 3 µM
Molecule: CCCCCCCC(=O)OC[C@H](NC(=O)[C@H](CO)NC(=O)CN)C(=O)N[C@@H](Cc1ccccc1)C(=O)N[C@@H](CC(C)C)C(=O)N[C@@H](CO)C(=O)N1CCC[C@H]1C(=O)N[C@@H](CCC(=O)O)C(=O)N[C@@H](Cc1c[nH]cn1)C(=O)N[C@@H](CCC(N)=O)C(=O)N[C@@H](CCCNC(=N)N)C(=O)N[C@H](C(=O)N[C@@H](CCC(N)=O)C(=O)N[C@H](C(=O)N[C@@H](CCCNC(=N)N)C(=O)N1CCC[C@H]1C(=O)N1CCC[C@H]1C(=O)N[C@@H](Cc1c[nH]cn1)C(=O)N[C@@H](CCCCN)C(=O)O)C(C)C)C(C)C [In1-19] (H-GSS(Octanoyl)FLSPEHQRVQVRPPHK-OH)
